Source: PMC4773869, “Influence of plasma-activated compounds on melanogenesis and tyrosinase activity” (Scientific Reports, 2016)

Key:
[1] = target: mushroom tyrosinase (Agaricus bisporus, UniProt C7FF04); test: Circular dichroism analysis of the secondary structure of mushroom tyrosinase; details: tyrosinase + as-synthesized compound (0 min plasma), 0.1 mM; for Turn % of tyrosinase: enzyme alone 7; for α-helix % of tyrosinase: enzyme alone 16; for β-sheet % of tyrosinase: enzyme alone 33; for Random coil % of tyrosinase: enzyme alone 44
Description: The structural changes in tyrosinase after incubation with ED and PAED were plotted in Fig. 5. […] We observed that the control tyrosinase enzyme has 16% α-helix, 33% β-sheets, 7% turn, and 44% random coil. After the interaction with 4a, the amount of α-helix changed to 15% and β-sheets changed to 35%. On the other hand, after the plasma treatment of 4a the amount of α-helix changed to 17% and β-sheets changed to 31%. While, after interacting with 4b, the amount of α-helix is 16.0%, β-sheets 29%, turn 10%, and random coil is 45.0%. However, plasma-activated 4b interacts differently with tyrosinase enzyme, showing 16% α-helix, 33% β-sheets, 6% turn, and 45% random coil. When 6a ED interacted with tyrosinase enzyme, we observed 20% α-helix, 25% β-sheets, 11.0% turn, and 44% random coil. However, 6a PAED interacts with tyrosinase enzyme, the α-helix changed to 19%, β-sheets 28%, turn 9%, and random coil 44%. […] To obtain further detail on the interaction of the ED with tyrosinase enzyme, we studied the molecular docking. For the CD spectroscopic studies[65][66][67] a J-815 spectrophotometer (Jasco, Japan) was used, equipped with a Peltier system that controlled the temperature. (1S)-(+)-10-camphorsulfonic acid (Aldrich, Milwaukee, WI) with a molar extinction coefficient of 34.5 M/cm at 285 nm and a 2.36 M/cm molar ellipticity (θ) at 295 nm was used for the CD calibrations. The samples were pre-equilibrated at the desired temperature for 15 min, and the scan speed was fixed for adaptative sampling (error F 0.01) with a response time of 1 sec and a 1 nm bandwidth. The secondary structure of the mushroom tyrosinase was monitored by using a 1.0 cm path length cuvette. The mushroom tyrosinase (0.2 mg/ml) was prepared in phosphate buffer (20 mM) at pH 6.8 for CD analysis. We used the 0.1 mM concentration of all derivatives in 1 ml buffer solution, with or without 10 min plasma treatment. All spectra were collected in triplicate from 200 to 250 nm and the background was corrected against the buffer (blank). The percentages of secondary structures of proteins were calculated using inbuilt Jasco software.

[2] = tested on: cAMP in B16F10 cells; test: Intracellular cAMP measurement (cAMP kit); assay type: cell-based, murine; details: for cAMP level: PAED (plasma-treated compound), compared with as-synthesized compound and control; for cAMP level compared to the control: as-synthesized compound, control: media only with cells
Description: For cAMP measurement, the 4b and 6a were treated with plasma for 3, 5, and 10 min, and then added to the cells, pre-incubated with or without α-MSH (100 nM) for 24 hr. The cells were trypsinised and centrifuged to obtain the cell pellets. The cell pellet was lysed and the cAMP level was measured using a cAMP Kit (Abcam, USA) according to the manufacturer’s instructions.

[3] = tested on: TRP1 expression in B16F10 cells; test: Western blot, TRP1 expression; assay type: cell-based, murine; details: 24 hr; for expression of TRP1 versus control: ED (as-synthesized); for expression of TRP1 versus ED: PAED (plasma-treated)
Description: (§1) Melanoma cells were incubated with as-synthesized and plasma-treated 4b and 6a test compounds for 24 hr. Following incubation, treated and untreated cells were lysed in RIPA buffer (Cell Signaling Technology, USA), whole cell protein was extracted and subjected to electrophoresis in 12% SDS-PAGE, and blotted onto nitrocellulose membranes. The membrane was probed with the antibodies raised against MITF, tyrosinase and TRP1 (Abcam, USA). The bands were detected using Super Signal West Pico Chemiluminescent Substrate (Pierce, Rockford, IL, USA) and images were taken using a Vilver imaging system (Vilver, Upland, CA, USA).

[4] = tested on: tyrosinase expression in B16F10 cells; test: Western blot, tyrosinase expression; assay type: cell-based, murine; details: 24 hr
Description: as §1

Chain of mushroom tyrosinase (C7FF04 2-392): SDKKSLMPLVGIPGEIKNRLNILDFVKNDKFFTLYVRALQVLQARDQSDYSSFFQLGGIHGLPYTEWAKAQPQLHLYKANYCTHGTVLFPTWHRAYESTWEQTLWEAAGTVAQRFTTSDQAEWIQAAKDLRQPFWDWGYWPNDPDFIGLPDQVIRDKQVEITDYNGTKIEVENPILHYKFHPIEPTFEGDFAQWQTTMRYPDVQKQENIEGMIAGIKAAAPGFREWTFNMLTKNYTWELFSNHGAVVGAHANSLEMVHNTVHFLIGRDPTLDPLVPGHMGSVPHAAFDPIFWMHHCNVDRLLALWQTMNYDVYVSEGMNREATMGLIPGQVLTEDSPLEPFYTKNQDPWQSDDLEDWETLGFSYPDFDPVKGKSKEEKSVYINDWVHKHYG

Row | Turn % of tyrosinase [1] [%] | α-helix % of tyrosinase [1] [%] | α-helix % of tyrosinase ([1]; listed as 4b-0 min) [%] | β-sheet % of tyrosinase [1] [%] | Random coil % of tyrosinase [1] [%] | Random coil % of tyrosinase ([1]; listed as 4b-0 min) [%] | Turn % of tyrosinase ([1]; listed as 6a-0 min) [%] | SMILES | cAMP level [2] | cAMP level compared to the control [2] | expression of TRP1 versus control [3] | expression of TRP1 versus ED [3] | cellular tyrosinase expression versus control ([4]; ED (as-synthesized)) | cellular tyrosinase expression versus control ([4]; PAED (plasma-treated))
1 | 10 | 16.0 | 16 | 29 | 45.0 | 45 | – | C=CCc1ccc(OC(=O)COC(=O)c2ccc(O)cc2)c(OC)c1 [4b, 2-[2-methoxy-4-(prop-2-en-1-yl)phenoxy]-2-oxoethyl 4-hydroxybenzoate] | enhanced even further | increased | higher expression | more expression | no change | no change
2 | 11.0 | 20 | – | 25 | 44 | – | 11 | C=CCc1ccc(OC(=O)COC(=O)/C=C/c2ccc(O)cc2)c(OC)c1 [6a, 2-[2-methoxy-4-(prop-2-en-1-yl)phenoxy]-2-oxoethyl(2E)-3-(4-hydroxyphenyl)prop-2-enoate] | enhanced even further | increased | higher expression | more expression | no change | no change
